Results on 22 molecules are retold here after ChEMBL document CHEMBL1127692, “Application of the three-dimensional structures of protein target molecules in structure-based drug design” (J Med Chem, 1994).

In brackets after ≈: the same amount, converted by molar mass. Where only a bound is given, the exact number is not on record here.

Series [1] deals with T1, Human immunodeficiency virus type 1 protease (Human immunodeficiency virus 1, UniProt Q72874).
Description: Inhibition of HIV-1 protease
Series [2] concerns the target Human immunodeficiency virus type 1 protease (Human immunodeficiency virus 1) (UniProt Q72874).
Description: Compound was evaluated for the thymidine reversal of HIV-1 protease
A further series addresses Carbonic anhydrase 2 (Homo sapiens, UniProt P00918).
Series [3] in a line: Compound was evaluated for the solubility at the pH 7.4. In kind it is ADME. To be noted: buffer.
The target of series [4] is T1, Human immunodeficiency virus type 1 protease. This is another data set of the same source.
Description: Compound was evaluated for the inhibitory activity against HIV-1 protease
For series [5] the target is unchanged. This is another data set of the same source.
Description: Effective concentration of compound for inhibition of HIV 1 protease was determined
The subject of the next series is L1210. Kind of series: cells. To be noted: Mus musculus.
The target in another series is Thymidylate synthase (Homo sapiens, UniProt P04818).
Sequence of Thymidylate synthase (P04818 whole entry): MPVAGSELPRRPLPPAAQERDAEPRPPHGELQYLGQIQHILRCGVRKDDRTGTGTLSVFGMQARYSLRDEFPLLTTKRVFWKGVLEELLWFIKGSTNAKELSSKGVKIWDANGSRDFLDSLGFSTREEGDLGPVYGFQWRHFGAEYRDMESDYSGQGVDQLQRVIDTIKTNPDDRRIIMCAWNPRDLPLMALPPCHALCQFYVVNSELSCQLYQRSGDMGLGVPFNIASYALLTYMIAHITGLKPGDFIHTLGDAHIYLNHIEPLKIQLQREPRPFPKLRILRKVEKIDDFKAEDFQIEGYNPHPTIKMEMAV

The IC50 is the concentration needed to halve the response being measured. The Ki is a dissociation constant, usually derived from enzyme kinetics or from competition with a known ligand. Low values mean higher affinity, high ones lower affinity. A word on the solubility: it is how much of the substance goes into solution per volume. Broadly, the EC50 is the concentration needed to bring the measured effect to its halfway point. Low values mean higher potency in that assay, high ones lower potency in that assay.

Description for Carbonic anhydrase 2: Compound was evaluated for the inhibitory constant towards Human Carbonic anhydrase II (HCA II)
Description for L1210: Compound was evaluated for the inhibitory activity of L1210 cells
Description for Thymidylate synthase: Compound was evaluated for the inhibitory constant of human thymidylate synthase

For the molecule `CC(=O)N[C@@H](Cc1ccccc1)C(O)[C@H](Cc1ccccc1)NC(C)=O`, in series [1], the IC50 was more than 10000 nM. Same read-out and setting: the figure for `CC(C)(C)OC(=O)N[C@@H](Cc1ccccc1)[C@@H](O)[C@H](O)[C@H](Cc1ccccc1)NC(=O)OC(C)(C)C` is 280 nM.

`CC(C)[C@H](NC(=O)OCc1ccccc1)C(=O)N[C@@H](Cc1ccccc1)C(O)C(O)[C@H](Cc1ccccc1)NC(=O)[C@@H](NC(=O)OCc1ccccc1)C(C)C` (single isomer, unassigned; 13) yielded a 50% inhibitory concentration (IC50) in series [1] of 0.38 nM.

On to `CN(Cc1ccc(S(=O)(=O)c2ccccc2)cc1)c1ccc2c3c(cccc13)C(N)=N2`, for which, in series [2], the Thymidine reversal stood at 2.3. `CC(C)[C@H](NC(=O)OCc1ccccc1)C(=O)N[C@@H](Cc1ccccc1)C(O)C(O)[C@H](Cc1ccccc1)NC(=O)[C@@H](NC(=O)OCc1ccccc1)C(C)C` (single isomer, unassigned; 11): the IC50 in series [1] amounted to 0.22 nM. Take `CC(C)[C@H](NC(=O)N(C)Cc1ccccn1)C(=O)N[C@@H](Cc1ccccc1)CC(O)[C@H](Cc1ccccc1)NC(=O)[C@@H](NC(=O)N(C)Cc1ccccn1)C(C)C` (single isomer, unassigned): the Ki at Carbonic anhydrase 2 stood at 17 nM. As to `CC(C)[C@H](NC(=O)OCc1ccccc1)C(=O)N[C@@H](Cc1ccccc1)[C@H](O)[C@H](O)[C@H](Cc1ccccc1)NC(=O)[C@@H](NC(=O)OCc1ccccc1)C(C)C`, the concentration for half-maximal inhibition (IC50) in series [1] amounted to 0.22 nM.

In series [3], `CC(C)[C@H](NC(=O)N(C)Cc1ccccn1)C(=O)N[C@@H](Cc1ccccc1)[C@H](O)[C@H](O)[C@H](Cc1ccccc1)NC(=O)[C@@H](NC(=O)N(C)Cc1ccccn1)C(C)C` [A-77003] showed a solubility of 256 µM (≈ 204 µg/mL). Besides, the inhibition constant (Ki) amounted to 0.15 nM in series [4] and 140 nM on Carbonic anhydrase 2. In series [5], this molecule returned a concentration giving a half-maximal response (EC50) of 70 nM. In the case of `CC(C)(C)OC(=O)N[C@@H](Cc1ccccc1)C(O)[C@H](Cc1ccccc1)NC(=O)OC(C)(C)C`, in series [1], the IC50 is 3000 nM. In the case of `CCN(Cc1ccc(S(=O)(=O)N2CCNCC2)cc1)c1ccc2c3c(cccc13)C(=O)N2`, the Thymidine reversal in series [2] was 1.1. `CC(=O)N[C@H](C(=O)N[C@H](C(=O)N[C@@H](Cc1ccccc1)C(O)[C@H](Cc1ccccc1)NC(=O)[C@@H](NC(=O)[C@@H](NC(C)=O)C(C)C)C(C)C)C(C)C)C(C)C` yielded an IC50 in series [1] of 10 nM. With `CN(Cc1ccc(S(=O)(=O)N2CCOCC2)cc1)c1ccc2c3c(cccc13)C(=N)N2`, in the series with L1210, the half-maximal inhibitory concentration (IC50) was 300 nM. The Thymidine reversal in series [2] was 8.5. In series [3], `CC(C)[C@H](NC(=O)OCc1ccccn1)C(=O)N[C@@H](Cc1ccccc1)[C@H](O)[C@H](O)[C@H](Cc1ccccc1)NC(=O)[C@@H](NC(=O)OCc1ccccn1)C(C)C` came in with a solubility of 3.1 µM (≈ 2.38 µg/mL). In series [4], this molecule showed an inhibitory constant (Ki) of 0.09 nM. The molecule further returned an EC50 in series [5] of 20 nM. Taken in the same sequence, the figures for `CC(C)[C@H](NC(=O)N(C)Cc1ccccn1)C(=O)N[C@@H](Cc1ccccc1)[C@@H](O)[C@H](O)[C@H](Cc1ccccc1)NC(=O)[C@@H](NC(=O)N(C)Cc1ccccn1)C(C)C` were 4.7 µM (≈ 3.74 µg/mL), 0.18 nM and 60 nM.

For the molecule `CC(C)[C@H](N)C(=O)N[C@@H](Cc1ccccc1)C(O)[C@H](Cc1ccccc1)NC(=O)[C@@H](N)C(C)C`, the IC50 in series [1] was 590 nM. `CC(C)[C@H](NC(=O)OCc1ccccn1)C(=O)N[C@@H](Cc1ccccc1)[C@@H](O)[C@H](O)[C@H](Cc1ccccc1)NC(=O)[C@@H](NC(=O)OCc1ccccn1)C(C)C` showed a solubility in series [3] of 0.27 µM (≈ 0.208 µg/mL). Moreover, the affinity in series [4] corresponds to a Ki of 0.19 nM. The molecule also registered an EC50 in series [5] of 50 nM. Consider `CNC1=Nc2ccc(N(C)Cc3ccc(S(=O)(=O)N4CCOCC4)cc3)c3c(C)ccc1c23`, for which, on Thymidylate synthase, the affinity, expressed as Ki, was 2 nM. In the series on L1210, the IC50 turned out to be 150 nM. The Thymidine reversal in series [2] is 12.7.

Consider `CC(C)(C)OC(=O)N[C@@H](Cc1ccccc1)[C@H](O)[C@@H](O)[C@H](Cc1ccccc1)NC(=O)OC(C)(C)C`, for which 40 nM corresponded to half-maximal inhibition in series [1] (IC50). Regarding `CC(C)[C@H](NC(=O)OCc1ccccn1)C(=O)N[C@@H](Cc1ccccc1)[C@H](O)[C@@H](O)[C@H](Cc1ccccc1)NC(=O)[C@@H](NC(=O)OCc1ccccn1)C(C)C`, in series [4], the Ki was found to be 0.16 nM. In addition, a half-maximal effect in series [5] (EC50) was put at 120 nM. As for `N[C@@H](Cc1ccccc1)C(O)[C@@H](N)Cc1ccccc1`, in series [1], the concentration for half-maximal inhibition (IC50) is more than 10000 nM. For the molecule `CC(C)[C@H](NC(=O)N(C)Cc1ccccn1)C(=O)N[C@@H](Cc1ccccc1)[C@H](O)[C@@H](O)[C@H](Cc1ccccc1)NC(=O)[C@@H](NC(=O)N(C)Cc1ccccn1)C(C)C` [A-76928], in series [3], the solubility was 292 µM (≈ 232 µg/mL). Besides, the affinity in series [4] corresponds to a Ki of 1.66 nM. This molecule gave a half-maximal effective concentration (EC50) in series [5] of 280 nM. Molecule `CN(Cc1ccc(S(=O)(=O)N2CCOCC2)cc1)c1ccc2c3c(cccc13)C(N)=N2` gave a Ki at Thymidylate synthase of 2 nM.
